Test results: patent publication US20170275287A1, “NOVEL N2, N4, N7, 6-TETRASUBSTITUTED PTERIDINE-2,4,7-TRIAMINE AND 2, 4, 6, 7-TETRASUBSTITUTED PTERIDINE COMPOUNDS AND METHODS OF SYNTHESIS AND USE THEREOF” (Janus Biotherapeutics, Inc., priority 2014, published 2017)
Converted amounts (≈) assume the structure as drawn. Read-outs that look alike come from different tables or passages of the source.

Tests used:
[1] = Metabolic stability, human liver microsomes (CEREP); type: in vitro ADME
Description: (§1) Preliminary screening measures were conducted by CEREP. All values fall within acceptable limits (Table 5). Solubility assays where performed by CEREP, Seattle, Wash., according to Lipinski, C. A. et al., 1997, Adv. Drug Del. Rev., 46:3-26. Protein binding assays where performed by CEREP, Seattle, Wash., according to Banker, M. J. et al., 2003, J. Pharm. Sci., 92:967-974. Permeability assays where performed by CEREP, Seattle, Wash. according to Hildalgo, I. J., 1998, Gastroenterology, 96:736-749. Metabolic stability assays where performed by CEREP, Seattle, Wash., according to Obach, R. S. et al., 1997, J. Pharmacol. Exp. Ther., 283:46-58. P-glycoprotein inhibition assays where performed by CEREP, Seattle, Wash., according to Polli, J. W. et al., 2001, J. Pharm. Exp. Ther., 299:620-628. Cell viability assays where performed by CEREP, Seattle, Wash., according to Mosmann, T., 1983, J. Immunol. Met. 65:55-62. hERG automated patch clamp assays where performed by CEREP, Seattle, Wash., according to Mathes, C., 2006, Expert Opin. Ther. Targets, 10:230-241.

Hep-G2 cells = assay: Cell viability, Hep-G2 cells (CEREP); type: cell-based
Description: as §1

[2] = Aqueous solubility (CEREP); type: physicochemical
Description: as §1

TLR9 = target: T1, TLR9 (Rattus norvegicus, UniProt Q6Y1S0); assay: PK/PD study: serum cytokines after ODN CpG 1668 challenge; type: in vivo, Sprague-Dawley rats
T1 construct: endogenous in cells; host or cells: live Sprague-Dawley rats
T1 sequence (Q6Y1S0 24-1032): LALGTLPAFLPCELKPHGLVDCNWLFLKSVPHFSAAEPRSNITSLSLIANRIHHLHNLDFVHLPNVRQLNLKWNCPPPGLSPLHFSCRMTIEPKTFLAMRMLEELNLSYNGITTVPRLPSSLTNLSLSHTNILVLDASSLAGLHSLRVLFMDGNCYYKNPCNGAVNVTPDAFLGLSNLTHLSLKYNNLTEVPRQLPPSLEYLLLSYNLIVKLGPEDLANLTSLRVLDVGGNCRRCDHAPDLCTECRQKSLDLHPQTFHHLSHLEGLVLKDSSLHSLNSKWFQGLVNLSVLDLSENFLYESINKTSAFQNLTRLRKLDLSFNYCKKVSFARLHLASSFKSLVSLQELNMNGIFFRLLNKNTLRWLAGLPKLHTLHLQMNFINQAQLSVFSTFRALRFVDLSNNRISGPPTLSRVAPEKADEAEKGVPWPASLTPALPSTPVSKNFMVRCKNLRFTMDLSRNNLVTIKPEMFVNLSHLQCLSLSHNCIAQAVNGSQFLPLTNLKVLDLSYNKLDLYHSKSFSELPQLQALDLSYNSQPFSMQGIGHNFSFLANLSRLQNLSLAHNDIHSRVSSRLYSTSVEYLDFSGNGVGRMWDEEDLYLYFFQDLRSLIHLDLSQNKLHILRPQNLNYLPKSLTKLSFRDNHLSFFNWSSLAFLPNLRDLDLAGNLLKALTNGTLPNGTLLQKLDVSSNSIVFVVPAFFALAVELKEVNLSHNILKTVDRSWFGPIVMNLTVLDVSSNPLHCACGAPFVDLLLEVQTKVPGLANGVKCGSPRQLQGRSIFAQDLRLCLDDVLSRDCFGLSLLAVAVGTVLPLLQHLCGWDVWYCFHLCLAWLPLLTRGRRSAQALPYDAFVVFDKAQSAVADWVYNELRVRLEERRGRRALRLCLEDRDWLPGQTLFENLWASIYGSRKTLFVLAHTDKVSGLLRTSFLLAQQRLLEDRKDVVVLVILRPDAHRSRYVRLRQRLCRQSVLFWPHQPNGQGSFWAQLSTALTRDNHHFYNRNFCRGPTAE
Description: The objective of this study was to collect serum following ODN CpG 1668 administration and to determine the pharmacokinetics of JB6121 following oral administration to Sprague-Dawley rats for 7 days. There was a pre-test to establish the appropriate agonist dose for a TLR9 ligand, CpG DNA ODN 1668, in rats using serum IL-12 as the monitored cytokine, groups 1-3, see table 6. Whole blood samples for serum were collected terminally from each animal 3 hours following dosing with ODN CpG 1668. Serum IL-12 was determined by ELISA, data not shown. An agonist dose of lmg/kg was selected for the next phase of the study. For groups administered JB6121 (Groups 4-7), formulations were corrected for base/salt components and not corrected for purity. On the initial day of dose administration, JB6121 formulations were prepared using sterile PBS to the adjusted target dosing concentrations using a factor of 0.8265 to correct for salt content. Dosing was performed as outlined in the following Table 9.
Animals were assigned to four groups (groups 4-7) and administered JB6121 at 0.39, 1.56, 6.25, or 25 mg/kg in a volume of […] once per day by oral gavage for 7 days. On Day 7, two hours following the JB6121 dose (approximate Cmax), ODN CpG 1668 was administered as a single IP dose at 1 mg/kg in a volume of 1 mL/kg. Whole blood samples for bioanalysis and serum samples for serum cytokine analysis were collected by tail vein bleeding or terminally by cardiac puncture at t=2, 3, 4 and 5 h.
Serum IL-12 was monitored at three hours post agonist challenge as a measure of pharmacodynamic JB6121 activity, see FIG. 4. The apparent ID50 post 7-day exposure is approximately 11 ng*h/ml AUC or roughly 0.5 mg/kg dose. […] This would lead to a fourfold greater, 0.5 mg/kg versus 2.4 mg/kg, expected activity in the 7-day rat versus the 1-day mouse. […] We also used multiplex analysis to measure additional cytokines and chemokines in the serum samples. The measurements delivered results for MIP-1a, MIP-2, MCP-1 and IP-10.

[3] = 7-day non-GLP tox study, once daily oral gavage; type: in vivo, rats; conditions: for no-observed-effect level (NOEL): rats, 7 days oral
Description: A 7-day non-GLP tox study was performed in rats. Dosing was once daily by oral gavage. There were four dose groups; 0, 10, 30 and 100 mg/kg. The following parameters and end points were evaluated in this study: clinical signs, body weights, body weight changes, food consumption, clinical pathology parameters (hematology, coagulation, clinical chemistry, and urinalysis), toxicokinetic parameters, gross necropsy findings, organ weights, and histopathologic examinations.

## CN1CCN(c2nc(NCCN3CCOCC3)c3nc(Cl)c(NCCN4CCOCC4)nc3n2)CC1 [JB6121, 6-chloro-2-(4-methylpiperazin-1-yl)-N^4,N^7-bis(2-morpholinoethyl)pteridine-4,7-diamine]
[1]
  Metabolic Stability, Human Liver Microsomes at 60 min. % remaining: 75%
Hep-G2 cells
  Cell Viability, Hep-G2 cells, % inhibition at 100 μM: 8.5%
[2]; PBS, pH 7.4, aqueous buffer, read-out: Aqueous Solubility, PBS, pH 7.4
  solubility: > 200 µM
[2]; simulated gastric fluid, read-out: Aqueous Solubility, simulated Gastric Fluid
  solubility: > 200 µM
[2]; simulated intestinal fluid, fassgf or other biorelevant, read-out: Aqueous Solubility, simulated Intestinal Fluid
  solubility: 195 µM (≈ 102 µg/mL)
TLR9; rat, po, serum IL-12, 3 h post agonist challenge, read-out: apparent ID50 post 7-day exposure, as dose
  ED50: ~0.5 mg/kg
TLR9; rat, 1.56 mg/kg dose, PO daily x7 days
  inhibition at 1.56 mg/kg: > 80%
TLR9; rat, serum IP-10, read-out: ID50, IP-10 (multiplex analysis)
  ED50: ~2.8 mg/kg
TLR9; serum IL-12, 3 h post agonist challenge
  apparent ID50 post 7-day exposure, as AUC: approximately 11 ng*h/ml
[3]; both sexes, rat, in vivo, po
  NOAEL at 7 days: 100 mg/kg/day
[3]; rat, in vivo, 30 mg/kg/day
  hematopoiesis (spleen): increased incidence of hematopoiesis
  increase of mean spleen weights: at least 10%
[3]; rat, in vivo, 100 mg/kg/day
  hematopoiesis in the liver: slight increase in hematopoiesis
[3]; females
  no-observed-effect level (NOEL): 100 mg/kg/day
[3]; males
  no-observed-effect level (NOEL): 10 mg/kg/day
